In the experiment the test system is α7 integrin (LacZ reporter in α7LacZ+/− myoblasts). Briefly: qHTS of the LOPAC library and MLSMR (online screen, α7LacZ+/− myoblasts). The note with it: for activation at 0.307 µM / activation at 1.53 µM / activation at 7.66 µM / activation at 38.3 µM / Emax / EC50: Mus musculus, Myoblast; for activation at 0.307 µM: read-out: Activity at 0.307 uM [%] **; for activation at 1.53 µM: read-out: Activity at 1.530 uM [%] **; for activation at 7.66 µM: read-out: Activity at 7.660 uM [%] **; for activation at 38.3 µM: read-out: Activity at 38.30uM [%] **; for EC50: read-out: Fit LogAC50 (converted). (qHTS replaces the single test concentration by a dilution series.)

Where [1] appears, read: 48 h, read-out: Fit Infinite Activity [%].

This note sets out measurements from patent US9980943B2, “Methods of treating muscular dystrophy” (BOARD OF REGENTS OF THE NEVADA SYSTEM OF HIGHER EDUCATION, …, priority 2013, dated 2018).

Structures are written as SMILES. Read-outs that look alike come from different tables or passages of the source.

Procedure: A total of 250 α7LacZ^+/− myoblasts at passage 13 were dispensed using a multidrop (Thermo) into black low base tissue culture treated microclear aurora plates in 6 μl media containing DMEM without phenol, 5% FBS, 1× GluMax and 1× Penicillin/Streptomycin. […] Compounds were then dispensed using a Kalypsys pintool to deliver 23 nl/well compounds in DMSO (diluted into 6 μl resulting in a 1:260 dilution of compound). […] After incubation with compound, 5 μl of the media was aspirated using the Kalypsys washer/dispenser and 3 μl of the Mammalian Protein Extraction Reagent (MPER) lysis buffer (Thermo Fisher) was added. […] The plates were then incubated for 10 minutes at room temperature.
The assay was adapted for a high-throughput screen with the fully automated Kalypsys robotic system using 1536 well plates at NCGC.

Turning to `CC1CCCCC12NC(=O)N(CC(=O)OCc1cccc(F)c1)C2=O` (stereo not drawn) [Compound 67], the EC50 was 10 µM. For the same compound, where the note is “48 h”, the activation at 0.307 µM was found to be 6.4%, the activation at 1.53 µM is 14.5%, the activation at 7.66 µM is 69.8% and the activation at 38.3 µM worked out at 142%. The Emax under setting [1] came to 162%. Further, the Emax (read-out: Max Response [%]) turned out to be 142%.
For `O=C(Cn1cccc1C(=O)c1ccccc1)NCCCc1ccccc1` [Compound 43], the EC50 was 3.98 µM. For the same compound, under “48 h”, the activation at 0.307 µM worked out at 13.7%, the activation at 1.53 µM came out at 43.9%, the activation at 7.66 µM amounted to 94.3% and the activation at 38.3 µM came to 131%. For the same compound, the Emax under setting [1] came out at 148%.
As for `COc1cc2c(cc1NC(=O)Cc1ccc(C)cc1)oc1ccccc12` [Compound 5], the EC50 is 1.12 µM. Under “48 h”, the activation at 0.307 µM was -1.8%, the activation at 1.53 µM is 58.4%, the activation at 7.66 µM came to 87.2% and the activation at 38.3 µM stood at 687%. Moreover, under setting [1], the Emax is 87.4%.
For the compound `Cc1c(C(=O)O)cccc1-n1c(C)cc(/C=N/Nc2ccc([N+](=O)[O-])cn2)c1C` [Compound 9], the Score is recorded as 85 and the EC50 is 2.82 µM. Further, for the setting “48 h”, the activation at 0.307 µM was -24.5%, the activation at 1.53 µM is 6.29%, the activation at 7.66 µM turned out to be 68.1% and the activation at 38.3 µM was found to be 88.7%. Moreover, under setting [1], the Emax was 92.2%. Also, the Emax (read-out: Max Response [%]) was 88.7%.
As to `O=C(O)CCn1cc(/C=C2/NC(=S)N(c3ccccc3)C2=O)c(-c2ccccc2)n1` [Compound 65], the Score is 45 and the EC50 was 20 µM. Moreover, for the setting “48 h”, the activation at 0.307 µM was 8.21%, the activation at 1.53 µM was 2.59%, the activation at 7.66 µM is 27.2% and the activation at 38.3 µM came out at 464%. Also, under setting [1], the Emax turned out to be 501%. Moreover, the Emax (read-out: Max Response [%]) was 464%.
For `COc1ccc(-n2c(C)c(C(C)=O)c3cc(OC(C)=O)ccc32)cc1` [Compound 59], the EC50 was 10 µM. Further, for the setting “48 h”, the activation at 0.307 µM turned out to be 0%, the activation at 1.53 µM was -6.19%, the activation at 7.66 µM is 48.5% and the activation at 38.3 µM came to 184%. The Emax under setting [1] worked out at 185%. For the same compound, the Emax (read-out: Max Response [%]) stood at 184%.
`COc1cccc(N2C(=O)CC(N3CCc4ccccc4C3)C2=O)c1` (stereo not drawn) [Compound 176]: the EC50 is 10 µM. Under “48 h”, the activation at 0.307 µM is -22.1%, the activation at 1.53 µM was -16.9%, the activation at 7.66 µM came out at 5.26% and the activation at 38.3 µM stood at 95.9%. Besides, the Emax under setting [1] came out at 96.1%. The Emax (read-out: Max Response [%]) was 95.9%.
On to `NC(=O)c1nsc(C(=O)N(c2ccccc2)C(C(=O)NCc2ccc(F)cc2)c2ccc(O)cc2)c1N` (stereo not drawn) [Compound 16], for which the EC50 was 2.24 µM. Also, for the setting “48 h”, the activation at 0.307 µM is -30.2%, the activation at 1.53 µM worked out at 5.64%, the activation at 7.66 µM amounted to 58.2% and the activation at 38.3 µM is 75.2%. For the same compound, under setting [1], the Emax was 77.5%.
As for `COc1ccc(CCNC(=O)c2nn(C)c3c2CS(=O)(=O)c2ccccc2-3)cc1OC` [Compound 74], the EC50 is 4.47 µM. In addition, where the note is “48 h”, the activation at 0.307 µM is -22.8%, the activation at 1.53 µM was -9.73%, the activation at 7.66 µM is 56.7% and the activation at 38.3 µM came out at 84.2%. Further, under setting [1], the Emax was determined as 86.2%. For the same compound, the Emax (read-out: Max Response [%]) was 84.2%.
For the compound `Cc1cc(C)nc(NC(=O)c2ccc(Cl)cc2Cl)n1` [Compound 198], the EC50 was 10 µM. In addition, under “48 h”, the activation at 0.307 µM worked out at 2.39%, the activation at 1.53 µM worked out at 0%, the activation at 7.66 µM is 17.6% and the activation at 38.3 µM was 79.1%. The Emax under setting [1] stood at 79.2%. For the same compound, the Emax (read-out: Max Response [%]) was found to be 79.1%.
Regarding `NC1=Nc2cccc3cccc1c23` [Compound 117], the EC50 was 7.94 µM. Further, where the note is “48 h”, the activation at 0.307 µM was determined as 0%, the activation at 1.53 µM came out at 5.07%, the activation at 7.66 µM turned out to be 43.6% and the activation at 38.3 µM is 82.2%. For the same compound, the Emax under setting [1] stood at 88.8%. The Emax (read-out: Max Response [%]) turned out to be 82.2%.
On to `C/C(=N\OCC(=O)OC(C)C(=O)Nc1ccc(C(N)=O)cc1)c1ccc2c(c1)OCO2` (stereo not drawn) [Compound 70], for which the EC50 was 4.47 µM. Besides, for the setting “48 h”, the activation at 0.307 µM is -15.5%, the activation at 1.53 µM was 4.11%, the activation at 7.66 µM came to 57.2% and the activation at 38.3 µM turned out to be 89.5%. Moreover, the Emax under setting [1] amounted to 96.1%. Further, the Emax (read-out: Max Response [%]) was found to be 89.5%.
With `O=C(NCCCn1ccnc1)/C(=C/c1cccs1)NC(=O)c1ccco1` [Compound 124], where the note is “48 h”, the activation at 0.307 µM is -19.2%, the activation at 1.53 µM was -7.39%, the activation at 7.66 µM is 35.5% and the activation at 38.3 µM worked out at 85.9%. Also, the Emax under setting [1] amounted to 103%. Also, the Emax (read-out: Max Response [%]) worked out at 85.9%.
With `CCCN(C(=O)c1ccc(S(=O)(=O)N2CCCC2)cc1)C1CCS(=O)(=O)C1` (stereo not drawn) [Compound 89], the EC50 was 5.01 µM. Under “48 h”, the activation at 0.307 µM is -9.99%, the activation at 1.53 µM is -0.297%, the activation at 7.66 µM amounted to 45.6% and the activation at 38.3 µM was 74.1%. Moreover, the Emax under setting [1] came to 75.3%. For the same compound, where the note is “read-out: Max Response [%]”, the Emax worked out at 74.1%.
In the case of `O=C(Nc1ccccc1F)c1ccc([N+](=O)[O-])s1` [Compound 81], the EC50 was 12.6 µM. Under “48 h”, the activation at 0.307 µM was 1.83%, the activation at 1.53 µM was 5.12%, the activation at 7.66 µM was determined as 24.3% and the activation at 38.3 µM came to 215%. The Emax under setting [1] came out at 216%. Further, the Emax (read-out: Max Response [%]) amounted to 215%.
As for `COc1cc(NC(=O)CN(C)S(=O)(=O)c2ccc3c(c2)CC(C)N3C(C)=O)cc(OC)c1OC` (stereo not drawn) [Compound 145], the EC50 was 10 µM. Further, for the setting “48 h”, the activation at 0.307 µM worked out at 0.302%, the activation at 1.53 µM worked out at 0.181%, the activation at 7.66 µM was 15.7% and the activation at 38.3 µM stood at 70.5%. The Emax under setting [1] came to 70.5%. For the same compound, the Emax (read-out: Max Response [%]) turned out to be 70.5%.
Take `CCNC(=O)COC(=O)c1cc(-c2ccco2)nc2ccccc12` [Compound 175]: where the note is “48 h”, the activation at 0.307 µM is -59.9%, the activation at 1.53 µM is -45.5%, the activation at 7.66 µM amounted to 5.39% and the activation at 38.3 µM worked out at 48.1%. Also, the Emax under setting [1] worked out at 54%. For the same compound, the Emax (read-out: Max Response [%]) was 48.1%.
Turning to `O=C(CSc1nnc(C2CC2)n1C1CC1)c1cccs1` [Compound 133], the EC50 was 10 µM. Also, for the setting “48 h”, the activation at 0.307 µM is -26%, the activation at 1.53 µM was -28.4%, the activation at 7.66 µM turned out to be 5.99% and the activation at 38.3 µM amounted to 70.2%. Also, the Emax under setting [1] is 73.1%. For the same compound, the Emax (read-out: Max Response [%]) was found to be 70.2%.
Turning to `CC1CCCCN1c1ncnc(N)c1[N+](=O)[O-]` (stereo not drawn) [Compound 52], the EC50 was 4.47 µM. Where the note is “48 h”, the activation at 0.307 µM is -25.7%, the activation at 1.53 µM was determined as 1.73%, the activation at 7.66 µM came out at 86.4% and the activation at 38.3 µM worked out at 130%. Further, the Emax under setting [1] amounted to 138%.
